Target: T1, HCN4 (Homo sapiens, UniProt Q9Y3Q4)
T1 construct: expressed in transfected cells
T1 sequence (Q9Y3Q4 1-1203): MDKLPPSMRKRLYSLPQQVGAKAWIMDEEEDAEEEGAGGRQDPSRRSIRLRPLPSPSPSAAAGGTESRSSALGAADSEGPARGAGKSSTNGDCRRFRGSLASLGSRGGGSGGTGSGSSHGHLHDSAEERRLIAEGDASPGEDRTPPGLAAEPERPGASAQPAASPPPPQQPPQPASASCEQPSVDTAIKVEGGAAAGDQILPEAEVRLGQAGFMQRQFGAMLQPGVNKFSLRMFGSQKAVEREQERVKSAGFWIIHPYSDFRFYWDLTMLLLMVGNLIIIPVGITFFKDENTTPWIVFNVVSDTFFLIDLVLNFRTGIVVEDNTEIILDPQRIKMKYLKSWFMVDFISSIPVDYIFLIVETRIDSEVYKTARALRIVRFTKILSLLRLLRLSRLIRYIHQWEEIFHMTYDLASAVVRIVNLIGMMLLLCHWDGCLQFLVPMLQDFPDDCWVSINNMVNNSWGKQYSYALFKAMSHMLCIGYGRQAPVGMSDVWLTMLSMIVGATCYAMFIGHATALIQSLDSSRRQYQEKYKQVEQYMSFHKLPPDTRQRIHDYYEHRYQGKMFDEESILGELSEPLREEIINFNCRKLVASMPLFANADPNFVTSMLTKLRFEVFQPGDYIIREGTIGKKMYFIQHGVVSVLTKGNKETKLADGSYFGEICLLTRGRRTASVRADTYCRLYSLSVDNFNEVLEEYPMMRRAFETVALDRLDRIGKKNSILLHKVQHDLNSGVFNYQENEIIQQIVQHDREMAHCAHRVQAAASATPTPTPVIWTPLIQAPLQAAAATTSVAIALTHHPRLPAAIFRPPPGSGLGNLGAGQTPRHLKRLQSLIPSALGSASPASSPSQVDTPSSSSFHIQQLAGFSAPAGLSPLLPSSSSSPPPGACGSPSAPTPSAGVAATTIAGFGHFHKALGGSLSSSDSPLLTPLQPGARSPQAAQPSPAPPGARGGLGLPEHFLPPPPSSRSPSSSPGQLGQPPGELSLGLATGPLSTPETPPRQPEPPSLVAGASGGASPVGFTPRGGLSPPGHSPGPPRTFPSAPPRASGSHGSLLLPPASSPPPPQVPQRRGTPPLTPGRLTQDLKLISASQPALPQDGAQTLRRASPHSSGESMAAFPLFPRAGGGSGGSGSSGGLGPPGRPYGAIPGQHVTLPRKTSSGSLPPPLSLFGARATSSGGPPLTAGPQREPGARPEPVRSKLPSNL
Experiment: IonWorks electrophysiological assay
Format: cell-based
Conditions: 1 μM
Description: The stock solution was transferred to a master plate and into assay plates where 2 μl per well of the solution were placed. On the day of the assay, 198 μl of external solution containing the appropriate DMSO concentration was added and mixed thoroughly. This provided a 1:100 dilution. A further 1:3 dilution occurred upon addition to the cells in the IonWorks, giving a 1:300 dilution in total. On each assay plate, at least 8 wells were reserved for vehicle control (0.3% DMSO) and at least 8 wells for each positive control specific to the cell line tested. The positive controls were tested at a maximal blocking and an approximate IC50 concentration. The compounds used for positive controls: Nav1.5 100 μM and 5 mM Lidocaine, Kv4.3/KChIP2 20 μM and 500 μM Quinidine, Cav1.2 1 μM and 100 μM Nitrendipine, Kv1.5 300 μM and 10 mM 4-AP, KCNQ1/minK 10 μM and 100 μM Chromanol 293B, hERG 0.1 μM and 1 μM Cisapride, HCN4 50 μM and 3 mM Cesium, Kir2.1 20 μM and 500 μM Barium.

SMILES: CC[C@H](C)[C@@H]1NC(=O)[C@H]([C@@H](C)O)NC(=O)[C@H](CO)NC(=O)[C@H](Cc2ccccc2)NC(=O)[C@H](CCCNC(=N)N)NC(=O)[C@H](CC(N)=O)NC(=O)[C@H](C)NC(=O)[C@H](CC(N)=O)NC(=O)CNC(=O)[C@H](CCCCN)NC(=O)[C@@H]2CSSC[C@@H]3NC(=O)[C@@H]4CCCN4C(=O)CNC(=O)[C@@H]4CCCN4C(=O)[C@H](CCCCN)NC(=O)[C@H](C(C)C)NC(=O)[C@@H]4CCCN4C(=O)[C@H](CC(C)C)NC(=O)[C@H](CC(N)=O)NC(=O)[C@@H](NC(=O)[C@H](Cc4ccccc4)NC(=O)[C@H](CO)NC(=O)[C@@H]4CCCN4C(=O)[C@@H](N)CCCNC(=N)N)CSSC[C@@H](C(=O)N[C@H](C(=O)NCC(=O)O)C(C)C)NC(=O)[C@H]([C@@H](C)O)NC(=O)[C@H](CCCNC(=N)N)NC(=O)[C@H](CCCNC(=N)N)NC(=O)[C@H](CSSC[C@H](NC(=O)[C@H](CCCCN)NC(=O)[C@H](CC(N)=O)NC(=O)[C@H]([C@@H](C)O)NC(=O)[C@H](CCCCN)NC(=O)[C@H](CCC(N)=O)NC(=O)[C@H](CO)NC(=O)[C@H](Cc4ccc(O)cc4)NC(=O)[C@H](Cc4ccc(O)cc4)NC(=O)[C@H](Cc4ccccc4)NC(=O)[C@H](C)NC(=O)[C@H](CO)NC(=O)[C@H](Cc4ccccc4)NC(=O)[C@H](Cc4ccccc4)NC(=O)CNC(=O)[C@H](CC(N)=O)NC3=O)C(=O)N[C@@H](Cc3c[nH]cn3)C(=O)N[C@@H](CO)C(=O)N[C@@H](Cc3ccccc3)C(=O)N[C@@H]([C@@H](C)O)C(=O)N[C@@H](Cc3ccc(O)cc3)C(=O)NCC(=O)NCC(=O)N2)NC(=O)[C@H](CCCCN)NC(=O)[C@H](CCC(=O)O)NC1=O [U-Da2a]
- inhibition of HCN4: did not appear to exhibit significant inhibition

— patent publication US9631001B2, “Peptide antagonists of the vasopressin-2 receptor” (COMMISSARIAT A L'ENERGIE ATOMIQUE ET AUX ENERGIES …, priority 2012, dated 2017)
